Test systems include A498 renal; ACHN renal; CCRF-CEM leukemia; COLO 205 colon; KM12 colon; LOX IMVI melanoma; NCI-H23 lung; RXF 393 renal; SK-MEL-28 melanoma; SN12C renal.
Common to all, as to assay: growth of human tumour cells (NCI), 48 h

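Five compound concentrations were applied to cells in 96-well plates for 48 hours; endpoints were derived by simple linear interpolation of the resulting dose-response curve. GI50 is the concentration that inhibits growth by half. The concentration for full growth arrest is given as TGI.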 A value given as a limit tells only on which side of the number the result lay.

Turning to `Cc1ccc(S(=O)(=O)OCC/C(=C\[Si](C)(C)C)c2ccccc2)cc1`, the TGI in the assay on A498 renal, in the assay with ACHN renal, with CCRF-CEM leukemia, in the assay with COLO 205 colon, with KM12 colon and with LOX IMVI melanoma was over 100 µM in each case. Besides, the TGI with NCI-H23 lung, in the assay on RXF 393 renal, with SK-MEL-28 melanoma and in the assay with SN12C renal was over 100 µM in each case.
Turning to `COc1cc(CNc2nc3cc(N)cc(N)c3nc2-c2ccccc2)cc(OC)c1`, the GI50 is 90.8 µM in the assay with A498 renal; 9.42 µM with ACHN renal; 1.72 µM with CCRF-CEM leukemia; 2.38 µM in the assay with COLO 205 colon; 4.28 µM in the assay with KM12 colon; 4.51 µM with LOX IMVI melanoma. The GI50 is 16.2 µM in the assay with NCI-H23 lung, 6.09 µM with RXF 393 renal, 1.76 µM in the assay with SK-MEL-28 melanoma and 11.4 µM with SN12C renal. Further, the TGI with A498 renal was over 100 µM; in the assay with ACHN renal it was 47.3 µM; with CCRF-CEM leukemia it was 5.68 µM; in the assay on COLO 205 colon it was 6.04 µM; with KM12 colon it was 73.3 µM; in the assay on LOX IMVI melanoma, 81.7 µM. Also, the TGI is over 100 µM with NCI-H23 lung, 58.5 µM in the assay with RXF 393 renal, 8.62 µM with SK-MEL-28 melanoma and over 100 µM in the assay on SN12C renal.
Regarding `CC(=O)O[C@H]1C(=O)[C@@]2(C)C([C@H](OC(=O)c3ccccc3)[C@]3(O)C[C@H](OC(=O)[C@H](O)[C@@H](NC(=O)c4ccccc4)c4ccccc4)C(C)=C1C3(C)C)[C@]1(OC(C)=O)CO[C@@H]1C[C@@H]2O` (stereo partly specified), the GI50 with A498 renal is 0.0161 µM; in the assay with ACHN renal it was 0.945 µM; with CCRF-CEM leukemia it was 0.0141 µM; in the assay on COLO 205 colon, under 0.005 µM; in the assay with KM12 colon it was under 0.005 µM; with LOX IMVI melanoma, 0.00513 µM. Further, the GI50 was 0.0125 µM in the assay with NCI-H23 lung, 0.00516 µM in the assay with RXF 393 renal, 0.0139 µM in the assay on SK-MEL-28 melanoma and 0.0142 µM with SN12C renal. For the same compound, the TGI was over 50 µM in the assay with A498 renal; over 50 µM in the assay with ACHN renal; over 50 µM with CCRF-CEM leukemia; 0.0246 µM in the assay on COLO 205 colon; over 50 µM in the assay with KM12 colon; over 50 µM in the assay on LOX IMVI melanoma. Further, the TGI in the assay on NCI-H23 lung is over 50 µM; in the assay with RXF 393 renal, 0.0382 µM; in the assay with SK-MEL-28 melanoma it was over 50 µM; with SN12C renal, over 50 µM.
As to `COc1ccc2c(c1)c(-c1nc(-c3c[nH]c4ncccc34)cs1)cn2CCCN1CCOCC1`, the GI50 in the assay on A498 renal was 0.481 µM; in the assay on ACHN renal, 2.5 µM; in the assay on CCRF-CEM leukemia, 2.76 µM; in the assay with COLO 205 colon it was 1.82 µM; with KM12 colon, 2.41 µM; in the assay on LOX IMVI melanoma, 1.74 µM. The GI50 in the assay with NCI-H23 lung was 2.68 µM; with RXF 393 renal it was 2.09 µM; with SK-MEL-28 melanoma, 1.95 µM; in the assay with SN12C renal it was 3.16 µM. Further, the TGI was found to be 2.04 µM with A498 renal; 8.22 µM in the assay with ACHN renal; 8.09 µM in the assay on CCRF-CEM leukemia; 3.8 µM in the assay on COLO 205 colon; 6.88 µM with KM12 colon; 3.27 µM in the assay with LOX IMVI melanoma. The TGI worked out at 8.75 µM in the assay on NCI-H23 lung, 4.88 µM with RXF 393 renal, 3.83 µM in the assay on SK-MEL-28 melanoma and 15.6 µM with SN12C renal.
In the case of `CC(=O)ON1CCCC(P(=O)(OCOC(=O)C(C)(C)C)OCOC(=O)C(C)(C)C)C1=O` (stereo unspecified), the GI50 with A498 renal was 0.314 µM; in the assay with ACHN renal it was 0.596 µM; with CCRF-CEM leukemia, 0.125 µM; in the assay with COLO 205 colon, 0.925 µM; with KM12 colon, 0.51 µM; in the assay on LOX IMVI melanoma, 0.827 µM. Further, the GI50 in the assay with NCI-H23 lung was 0.91 µM; in the assay on RXF 393 renal it was 0.308 µM; in the assay with SK-MEL-28 melanoma it was 0.483 µM; with SN12C renal, 0.314 µM. Also, the TGI turned out to be 2.01 µM in the assay on A498 renal; 13.5 µM in the assay on ACHN renal; 7.81 µM with CCRF-CEM leukemia; 5.71 µM in the assay on COLO 205 colon; 2.54 µM with KM12 colon; 15.3 µM in the assay with LOX IMVI melanoma. For the same compound, the TGI in the assay with NCI-H23 lung was found to be 4.25 µM; in the assay on RXF 393 renal, 1.19 µM; with SK-MEL-28 melanoma, 1.42 µM; with SN12C renal, 2.38 µM.
As to `O=c1/c(=C/c2ccccc2[N+](=O)[O-])sc2nnc(-c3cccnc3)n12`, the TGI in the assay on A498 renal, in the assay on ACHN renal, in the assay on CCRF-CEM leukemia, with KM12 colon, in the assay with LOX IMVI melanoma and in the assay with NCI-H23 lung was over 100 µM each time. Further, the TGI with RXF 393 renal, with SK-MEL-28 melanoma and in the assay with SN12C renal was over 100 µM each time.
As for `CSC1=Nc2c(c(C)c(C)n2COC(CO)CO)C2=NC(=O)CN12`, the GI50 with A498 renal, in the assay with ACHN renal, in the assay on CCRF-CEM leukemia, in the assay on COLO 205 colon, with KM12 colon and in the assay with LOX IMVI melanoma was over 100 µM in each case. Moreover, the GI50 in the assay with NCI-H23 lung, in the assay on RXF 393 renal, with SK-MEL-28 melanoma and in the assay on SN12C renal was over 100 µM throughout. Besides, the TGI in the assay on A498 renal, in the assay on ACHN renal, in the assay on CCRF-CEM leukemia, in the assay with COLO 205 colon, in the assay on KM12 colon and in the assay with LOX IMVI melanoma was over 100 µM throughout. For the same compound, the TGI in the assay on NCI-H23 lung, in the assay on RXF 393 renal, in the assay with SK-MEL-28 melanoma and in the assay with SN12C renal was over 100 µM throughout.
With `O=C1/C(=C\c2ccccc2)CN(C(=O)CCN2CCCCC2)C/C1=C/c1ccccc1`, the TGI in the assay on A498 renal worked out at 7.43 µM; in the assay on ACHN renal it was 4.29 µM; with CCRF-CEM leukemia, 0.866 µM; in the assay with COLO 205 colon, 3.83 µM; with KM12 colon, 1.24 µM; in the assay with LOX IMVI melanoma, 0.842 µM. For the same compound, the TGI stood at 4.51 µM in the assay on NCI-H23 lung, 3.53 µM with RXF 393 renal, 5.69 µM with SK-MEL-28 melanoma and 2.48 µM in the assay with SN12C renal.
As to `O=C(OCc1ccc2c(Br)cc(Br)c(O)c2n1)c1cc2ccccc2[nH]1`, the GI50 in the assay on A498 renal is 1.56 µM; with ACHN renal it was 0.352 µM; with CCRF-CEM leukemia it was 0.293 µM; with COLO 205 colon it was 0.511 µM; in the assay on KM12 colon it was 1.52 µM; in the assay with LOX IMVI melanoma it was 0.185 µM. Further, the GI50 in the assay with NCI-H23 lung is 1.44 µM; with RXF 393 renal, 0.338 µM; in the assay on SK-MEL-28 melanoma, 1.24 µM; in the assay with SN12C renal, 0.839 µM. Besides, the TGI amounted to 2.96 µM in the assay on A498 renal; 1.27 µM with ACHN renal; 2.03 µM in the assay on CCRF-CEM leukemia; 1.84 µM with COLO 205 colon; 3.09 µM with KM12 colon; 0.405 µM with LOX IMVI melanoma. In addition, the TGI with NCI-H23 lung worked out at 3.14 µM; in the assay with RXF 393 renal, 1.26 µM; in the assay on SK-MEL-28 melanoma, 2.51 µM; with SN12C renal, 2.18 µM.
In the case of `O=C1Oc2ccccc2C(=O)/C1=C1/C=C(c2ccccc2)SS1`, the TGI in the assay on A498 renal is over 100 µM; in the assay with ACHN renal, over 100 µM; with CCRF-CEM leukemia, 49.6 µM; in the assay with COLO 205 colon it was over 100 µM; with KM12 colon it was over 100 µM; with LOX IMVI melanoma it was over 100 µM. The TGI in the assay with NCI-H23 lung, in the assay with RXF 393 renal, with SK-MEL-28 melanoma and in the assay with SN12C renal was over 100 µM each time.
For the compound `O=C(/C=C/C12c3ccccc3C(c3ccccc31)C1C(=O)NC(=O)C12)c1ccccn1` (stereo unspecified), the GI50 with A498 renal was 1.66 µM; in the assay on ACHN renal, 2.88 µM; with CCRF-CEM leukemia it was 1.44 µM; in the assay with COLO 205 colon, 1.88 µM; with KM12 colon, 1.43 µM; in the assay with LOX IMVI melanoma it was 1.11 µM. The GI50 with NCI-H23 lung was 1.89 µM; in the assay with RXF 393 renal, 1.61 µM; in the assay with SK-MEL-28 melanoma it was 2.03 µM; in the assay on SN12C renal, 1.48 µM. Moreover, the TGI in the assay on A498 renal turned out to be 3.15 µM; in the assay on ACHN renal it was 10.3 µM; in the assay with CCRF-CEM leukemia, 9.92 µM; with COLO 205 colon, 3.62 µM; in the assay on KM12 colon, 3.03 µM; in the assay on LOX IMVI melanoma it was 2.51 µM. In addition, the TGI in the assay on NCI-H23 lung turned out to be 4.07 µM; in the assay on RXF 393 renal it was 3.12 µM; in the assay on SK-MEL-28 melanoma, 3.86 µM; in the assay with SN12C renal it was 3.44 µM.
Regarding `O=C1CC(c2ccccc2)Oc2ccccc21` (stereo unspecified), the TGI in the assay on A498 renal is 94 µM; with ACHN renal it was over 100 µM; in the assay with CCRF-CEM leukemia it was 57.4 µM; with COLO 205 colon it was over 100 µM; with KM12 colon, over 100 µM; in the assay on LOX IMVI melanoma, 84.3 µM. Also, the TGI in the assay with NCI-H23 lung was 45.5 µM; with RXF 393 renal it was 94.4 µM; in the assay on SK-MEL-28 melanoma, over 100 µM.
With `O=[N+]([O-])c1cccc(C2=NN(c3ccccc3)C3c4cc(Br)ccc4OCC23)c1` (stereo unspecified), the TGI with A498 renal, in the assay with ACHN renal, in the assay on CCRF-CEM leukemia, with COLO 205 colon, in the assay with KM12 colon and in the assay with LOX IMVI melanoma was over 100 µM each time. Moreover, the TGI with NCI-H23 lung, in the assay on RXF 393 renal and in the assay on SK-MEL-28 melanoma was over 100 µM each time.
For `O=[N+]([O-])c1ccccc1C1SCc2nc3ccccc3n21` (stereo unspecified), the TGI with A498 renal, in the assay with ACHN renal, in the assay with CCRF-CEM leukemia, in the assay with KM12 colon, in the assay on LOX IMVI melanoma and with NCI-H23 lung was over 100 µM throughout. For the same compound, the TGI in the assay on RXF 393 renal, in the assay with SK-MEL-28 melanoma and in the assay on SN12C renal was over 100 µM throughout.

Source of the values: PubChem BioAssay (NCI).
